6 compounds from US6514997B2, “Antipicornaviral compounds and compositions, their pharmaceutical uses, and materials for their synthesis” (Agouron Pharmaceuticals, Inc., priority 1999, dated 2003) can be followed below.

Series [1] can be described thus: Cytotoxicity (CC50) in mock-infected H1-HeLa cells, XTT dye reduction. The class given is cell-based, human. Conditions: human, H1-HeLa cells, mock-infected. Summed up: (§1)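 H1-HeLa cells mock-infected, read by XTT/PMS formazan at 450/650 nm.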
On the technique in general: Tetrazolium assays rely on reduction of a dye to a coloured formazan, in cell work by metabolically active cells.

The subject of a further series is H1-HeLa cells. Described as above. Type of series: cell-based, human. Summed up:
as §1

For the next series, the system named is HRV-14. As to the kind of experiment: Antirhinoviral H1-HeLa cell culture assay (XTT cell protection, EC50), HRV-14. Type of series: cell-based, human rhinovirus (HRV) serotype-14 in H1-HeLa cells. The note with it: Rhinovirus B, HRV14, H1-HeLa. Summed up: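 H1-HeLa cells were infected with HRV-14 at m.o.i. 0.13, or mock-infected, and incubated with compound for two days. Cell protection was read by XTT/PMS formazan absorbance at 450/650 nm to give EC50. CC50 came from mock-infected cells, and TI = CC50/EC50.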

For series [2], the target named is T1, Recombinant rhinovirus 3C protease, serotype 14 (Human rhinovirus 14, UniProt P03303).
T1 construct: Recombinant rhinovirus 3C proteases; made in house
T1 sequence (P03303 1538-1719): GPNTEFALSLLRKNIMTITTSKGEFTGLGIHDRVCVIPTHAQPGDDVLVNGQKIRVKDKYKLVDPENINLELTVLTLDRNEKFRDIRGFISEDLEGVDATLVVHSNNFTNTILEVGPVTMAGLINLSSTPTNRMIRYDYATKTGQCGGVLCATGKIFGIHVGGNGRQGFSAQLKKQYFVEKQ
Description: Inhibition of rhinovirus 3C protease (FRET assay, kobs/[I]), serotype 14. Type of series: biochemical. The note with it: pH 7.6, read-out: kobs/[I] (3C protease inhibition activity). Summed up: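 Enzyme-start FRET assay with ~1 μM DABCYL/EDANS peptide substrate and 50-100 nM recombinant protease in 50 mM tris pH 7.6, 1 mM EDTA, 2% DMSO. Cleavage followed as fluorescence increase; kobs/[I] derived from progress curves.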

The test system of series [3] is strains of human rhinovirus (HRV). As to the kind of experiment: Antirhinoviral H1-HeLa cell culture assay (XTT cell protection, EC50), other HRV strains. The class given is cell-based, human rhinovirus in H1-HeLa cells. Summed up:
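H1-HeLa cells infected, or mock-infected, were incubated with compounds for two days. Cell protection measured by XTT/PMS formazan absorbance at 450/650 nm; TI taken as CC50 divided by EC50.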

Setting [4] is: H1-HeLa, HRV-1A, read-out: EC50.
The mark [5] stands for this setting: Human rhinovirus sp., HRV9, H1-HeLa, HRV-9, read-out: EC50.
The mark [6] stands for this setting: Human rhinovirus sp., HRV10, H1-HeLa, HRV-10, read-out: EC50.
Setting [7] is: Human rhinovirus sp., HRV25, H1-HeLa, HRV-25, read-out: EC50.
Where [8] appears, read: Human rhinovirus sp., HRV16, H1-HeLa, HRV-16, read-out: EC50.
Setting [9] is: Human rhinovirus sp., HRV39, H1-HeLa, HRV-39, read-out: EC50.
[10] abbreviates: Human rhinovirus sp., HRV3, H1-HeLa, HRV-3, read-out: EC50.
Setting [11] is: Human rhinovirus sp., HRV87, H1-HeLa, HRV-87, read-out: EC50.

Each structure is given as a SMILES string. Like-named read-outs stand apart in the source and are kept apart here.

One may read the CC50 as the concentration giving 50% cytotoxicity. High values mean better tolerance by the cells, low ones harm at low concentration. The EC50 is the midpoint of the concentration-response curve. In series [1] (HRV-14), `Cc1cc(C(=O)Nc2cccn([C@@H](Cc3ccc(F)c(F)c3)C(=O)N[C@H](/C=C/C(=O)OC3CCCCCC3)C[C@@H]3CCNC3=O)c2=O)no1` [Compound 56, trans-(2′S,3″″″S,4S)-4-[3′-(3″,4″-Difluorophenyl)-2′-(3′″-{[1″″-(5′″″-methylisoxazol-3′″″-yl)methanoyl]aminol}-2″″-oxo-2″″H-pyridin-1″″-yl)propanoylamino]-5-(2″″″-oxopyrrolidin-3″″″-yl)pent-2-enoic Acid Cycloheptyl Ester] came in with a CC50 at 2 days above 10000 nM. Moreover, the CC50 in the series on H1-HeLa cells (HRV-1A), with H1-HeLa cells (HRV-9), with H1-HeLa cells (HRV-10) and in the series with H1-HeLa cells (HRV-25) was above 10000 nM in each case. For the same compound, the EC50 in the series with HRV-14 is 163 nM; in series [3] (setting [4]), 504 nM; in series [3] (setting [5]) it was 546 nM; in series [3] (setting [6]), 158 nM; in series [3] (setting [7]) it was 400 nM. Moreover, the kinact/KI in series [2] (HRV-14 3C protease) came to 99000 M⁻¹ s⁻¹.

For `C#CC[C@@H](C(=O)N[C@H](/C=C(\C)C(=O)OCC)C[C@@H]1CCNC1=O)n1cccc(NC(=O)c2cc(C)on2)c1=O` [Compound 44, trans-(2′S,3′″″S,4S)-2-Methyl-4-[2′-(3″-{[1′″-(5″″-methylisoxazol-3″″-yl)methanoyl]amino}-2′″-oxo-2′″H-pyridin-1′″-yl)pent-4″-ynoylamino]-5-(2′″″-oxopyrrolidin-3′″″-yl)pent-2-enoic Acid Ethyl Ester], the half-maximal cytotoxic concentration (CC50) at 2 days in series [1] (line of HRV-14) is above 10000 nM. Further, the CC50 with H1-HeLa cells (line of HRV-2), with H1-HeLa cells (line of HRV-10), in the series with H1-HeLa cells (line of HRV-16), with H1-HeLa cells (line of HRV-25) and with H1-HeLa cells (line of HRV-39) was above 10000 nM each time. Moreover, the 50% effective concentration (EC50) was 1460 nM in the series on HRV-14; 1180 nM in series [3] (H1-HeLa, HRV-2, read-out: EC50); 562 nM in series [3] (setting [6]); 1090 nM in series [3] (setting [8]); 1220 nM in series [3] (setting [7]); above 1000 nM in series [3] (setting [9]). Besides, in series [2] (HRV-14), the kinact/KI was 12500 M⁻¹ s⁻¹.

In series [1] (line of HRV-14), `C#CC[C@@H](C(=O)N[C@H](/C=C/C(=O)OC(C)C)C[C@@H]1CCNC1=O)n1cccc(NC(=O)c2cc(C)on2)c1=O` [Compound 50, trans-(2′S,3′″″S,4S)-4-[2′-(3″- {[1′″-(5″″-Methylisoxazol-3″″-yl)methanoyl]amino}-2′″-oxo-2′″H-pyridin-1′″-yl)pent-4″-ynoylamino]-5-(2′″″-oxopyrrolidin-3′″″-yl)pent-2-enoic Acid Isopropyl Ester] yielded a CC50 at 2 days above 10000 nM. In addition, the half-maximal cytotoxic concentration (CC50) in the series on H1-HeLa cells (line of HRV-1A), in the series on H1-HeLa cells (line of HRV-2), in the series on H1-HeLa cells (line of HRV-3), in the series on H1-HeLa cells (line of HRV-9), in the series on H1-HeLa cells (line of HRV-10) and in the series on H1-HeLa cells (line of HRV-16) was above 10000 nM throughout. The CC50 with H1-HeLa cells (line of HRV-25) and with H1-HeLa cells (line of HRV-39) was above 10000 nM throughout. Moreover, the concentration giving a half-maximal response (EC50) in the series with HRV-14 amounted to 68 nM; in series [3] (setting [4]), 200 nM; in series [3] (H1-HeLa, HRV-2, read-out: EC50), 105 nM; in series [3] (setting [10]) it was 117 nM; in series [3] (setting [5]), 122 nM; in series [3] (setting [6]) it was 750 nM. Moreover, the concentration giving a half-maximal response (EC50) in series [3] (setting [8]) is 185 nM; in series [3] (setting [7]), 371 nM; in series [3] (setting [9]), above 1000 nM. In addition, the kinact/KI in series [2] (HRV-14) stood at 100000 M⁻¹ s⁻¹.

In series [1] (line of HRV-14), `CCOC(=O)/C=C/[C@H](C[C@@H]1CCNC1=O)NC(=O)[C@@H]1CCc2ccc(NC(=O)c3cc(C)on3)c(=O)n21` [Compound 37, trans-(3′S,3′″S,4S)-4-({6′-[(5″-Methylisoxazole-3″-carbonyl)amino]-5′-oxo-1′,2′,3′,5′-tetrahydroindolizine-3′-carbonyl}amino)-5-(2′″-oxopyrrolidin-3′″-yl)-pent-2-enoic Acid Ethyl Ester] had a CC50 at 2 days above 10000 nM. The cytotoxic concentration (CC50) with H1-HeLa cells (line of HRV-1A), in the series on H1-HeLa cells (line of HRV-2), in the series on H1-HeLa cells (line of HRV-3), in the series on H1-HeLa cells (line of HRV-9), in the series with H1-HeLa cells (line of HRV-10) and in the series with H1-HeLa cells (line of HRV-16) was above 10000 nM in each case. Moreover, the CC50 in the series on H1-HeLa cells (line of HRV-25), with H1-HeLa cells (line of HRV-39) and with H1-HeLa cells (line of HRV-87) was above 10000 nM throughout. For the same compound, the concentration for a half-maximal effect (EC50) in the series with HRV-14 stood at 162 nM; in series [3] (setting [4]), 108 nM; in series [3] (H1-HeLa, HRV-2, read-out: EC50) it was 37 nM; in series [3] (setting [10]) it was 43 nM; in series [3] (setting [5]), 121 nM; in series [3] (setting [6]), 41 nM. For the same compound, the 50% effective concentration (EC50) was 72 nM in series [3] (setting [8]); 162 nM in series [3] (Human rhinovirus sp., HRV25, H1-HeLa); 16 nM in series [3] (setting [9]); 58 nM in series [3] (setting [11]). Also, the kinact/KI in series [2] (HRV-14) amounted to 177000 M⁻¹ s⁻¹.

Turning to `Cc1cc(C(=O)Nc2cccn([C@@H](Cc3ccc(F)c(F)c3)C(=O)N[C@H](/C=C/C(=O)OC(C)(C)C)C[C@@H]3CCNC3=O)c2=O)no1` [Compound 46], in series [1] (line of HRV-14), the CC50 at 2 days was above 10000 nM. Further, the cytotoxic concentration (CC50) with H1-HeLa cells (line of HRV-1A), in the series on H1-HeLa cells (line of HRV-2), with H1-HeLa cells (line of HRV-3), in the series with H1-HeLa cells (line of HRV-9), in the series on H1-HeLa cells (line of HRV-10) and in the series on H1-HeLa cells (line of HRV-11) was above 10000 nM throughout. For the same compound, the cytotoxic concentration (CC50) in the series on H1-HeLa cells (line of HRV-13), in the series on H1-HeLa cells (line of HRV-16), with H1-HeLa cells (line of HRV-19), in the series on H1-HeLa cells (line of HRV-23), in the series with H1-HeLa cells (line of HRV-25) and in the series on H1-HeLa cells (line of HRV-39) was above 10000 nM each time. The CC50 in the series on H1-HeLa cells (line of HRV-78) and with H1-HeLa cells (line of HRV-Hanks) was above 10000 nM throughout. Further, the EC50 in the series with HRV-14 is 6 nM; in series [3] (setting [4]), 182 nM; in series [3] (H1-HeLa, HRV-2, read-out: EC50), 145 nM; in series [3] (H1-HeLa, HRV-23, read-out: EC50), 11 nM; in series [3] (Human rhinovirus sp., H1-HeLa, HRV-Hanks, read-out: EC50), 5 nM; in series [3] (setting [10]) it was 45 nM. Moreover, the EC50 in series [3] (setting [5]) turned out to be 151 nM; in series [3] (setting [6]) it was 135 nM; in series [3] (Human rhinovirus sp., HRV11, H1-HeLa, HRV-11, read-out: EC50), 3 nM; in series [3] (Human rhinovirus sp., HRV13, H1-HeLa, HRV-13, read-out: EC50), 78 nM; in series [3] (setting [8]) it was 160 nM; in series [3] (Human rhinovirus sp., HRV19, H1-HeLa, HRV-19, read-out: EC50) it was 20 nM. Besides, the concentration giving a half-maximal response (EC50) stood at 188 nM in series [3] (setting [7]); 227 nM in series [3] (setting [9]); 25 nM in series [3] (Human rhinovirus sp., HRV78, H1-HeLa, HRV-78, read-out: EC50). For the same compound, the kinact/KI in series [2] (HRV-14) came out at 350000 M⁻¹ s⁻¹.

As to `CCOC(=O)/C=C/[C@H](C[C@@H]1CCNC1=O)NC(=O)[C@@H]1CCc2c(Cl)cc(NC(=O)c3cc(C)on3)c(=O)n21` [Compound 39, trans-(3′S,3′″S,4S)-4-({8′-Chloro-6′-[(5″-methylisoxazole-3″-carbonyl)amino]-5′-oxo-1′,2′,3′,5′-tetrahydroindolizine-3′-carbonyl}amino)-5-(2′″-oxopyrrolidin-3′″-yl)-pent-2-enoic Acid Ethyl Ester], the 50% cytotoxic concentration (CC50) at 2 days in series [1] (line of HRV-14) is above 10000 nM. Besides, the CC50 in the series on H1-HeLa cells (line of HRV-1A), with H1-HeLa cells (line of HRV-2), in the series with H1-HeLa cells (line of HRV-3), in the series with H1-HeLa cells (line of HRV-9), in the series on H1-HeLa cells (line of HRV-10) and in the series with H1-HeLa cells (line of HRV-16) was above 10000 nM throughout. The CC50 with H1-HeLa cells (line of HRV-25), in the series with H1-HeLa cells (line of HRV-39) and in the series on H1-HeLa cells (line of HRV-87) was above 10000 nM throughout. The half-maximal effective concentration (EC50) in the series on HRV-14 is 40 nM; in series [3] (setting [4]), 42 nM; in series [3] (H1-HeLa, HRV-2, read-out: EC50), 16 nM; in series [3] (setting [10]), 39 nM; in series [3] (setting [5]) it was 48 nM; in series [3] (setting [6]), 88 nM. For the same compound, the EC50 was found to be 57 nM in series [3] (setting [8]), 107 nM in series [3] (setting [7]), 48 nM in series [3] (setting [9]) and 17 nM in series [3] (setting [11]). Further, in series [2] (HRV-14), the kinact/KI came to 200000 M⁻¹ s⁻¹.
